The text below walks through data of BindingDB's records for doi:10.1021/acs.biochem.5b00135 (Northwestern University, 2015).

In the assay the target is T1, Nitric oxide synthase, inducible (Mus musculus, UniProt P29477).
T1 sequence (P29477 whole entry): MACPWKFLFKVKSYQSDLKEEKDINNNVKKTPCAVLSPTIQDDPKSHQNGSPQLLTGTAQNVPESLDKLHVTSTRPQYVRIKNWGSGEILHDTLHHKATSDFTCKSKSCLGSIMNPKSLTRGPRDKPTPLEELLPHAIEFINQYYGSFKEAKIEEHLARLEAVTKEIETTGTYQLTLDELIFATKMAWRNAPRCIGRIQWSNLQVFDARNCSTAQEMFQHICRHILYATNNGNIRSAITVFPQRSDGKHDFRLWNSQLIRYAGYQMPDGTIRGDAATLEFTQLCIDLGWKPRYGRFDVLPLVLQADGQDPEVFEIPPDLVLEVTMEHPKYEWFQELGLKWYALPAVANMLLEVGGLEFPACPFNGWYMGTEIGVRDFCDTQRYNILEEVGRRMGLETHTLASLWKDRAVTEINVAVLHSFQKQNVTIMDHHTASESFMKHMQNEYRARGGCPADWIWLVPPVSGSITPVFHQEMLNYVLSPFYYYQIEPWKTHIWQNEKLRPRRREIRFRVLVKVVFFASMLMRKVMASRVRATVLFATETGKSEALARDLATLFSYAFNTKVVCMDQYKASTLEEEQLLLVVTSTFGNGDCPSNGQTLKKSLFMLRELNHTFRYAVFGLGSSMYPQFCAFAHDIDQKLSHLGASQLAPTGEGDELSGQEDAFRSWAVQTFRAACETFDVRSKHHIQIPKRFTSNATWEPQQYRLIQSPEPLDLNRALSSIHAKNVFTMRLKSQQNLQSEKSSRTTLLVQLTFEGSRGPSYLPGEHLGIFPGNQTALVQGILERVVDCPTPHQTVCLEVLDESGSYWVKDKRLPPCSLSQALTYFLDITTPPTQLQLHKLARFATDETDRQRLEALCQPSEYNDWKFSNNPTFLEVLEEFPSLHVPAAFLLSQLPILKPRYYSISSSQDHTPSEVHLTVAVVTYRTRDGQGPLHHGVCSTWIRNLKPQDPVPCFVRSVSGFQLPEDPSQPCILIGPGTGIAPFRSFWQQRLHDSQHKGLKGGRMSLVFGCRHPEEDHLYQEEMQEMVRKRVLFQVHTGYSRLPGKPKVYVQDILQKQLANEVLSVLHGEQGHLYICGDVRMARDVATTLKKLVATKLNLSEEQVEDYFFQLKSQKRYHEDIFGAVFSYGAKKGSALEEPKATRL
Kind of assay: Hemoglobin Assay. Conditions: pH 7.4. How it is done: The final volume was adjusted to 600 μL with 100 mM Hepes buffer (pH 7.4).

For `N=CNCCC[C@H](N)C(=O)O` [(S)-2-Amino-5-formimidamidopentanoic acid (7)], the half-maximal inhibitory concentration (IC50) came out at 0.4 µM and the Ki was 0.18 µM.

`CCC(=N)NCCC[C@H](N)C(=O)O` [(S)-2-Amino-5-propionimidamidopentanoic acid (8)] yielded an IC50 of 16.1 µM and a Ki of 7.25 µM. For `CC(C)C(=N)NCCC[C@H](N)C(=O)O` [(S)-2-Amino-5-isobutyrimidamidopentanoic acid (10)], half-maximal inhibition (IC50) was put at 138 µM and the inhibitory constant (Ki) stood at 65.2 µM. For the compound `CC(C)(C)C(=N)NCCC[C@H](N)C(=O)O` [(S)-2-Amino-5-pivalimidamidopentanoic acid (12)], the IC50 was found to be 323 µM and the Ki was 146 µM. `CC(=N)NCCC[C@H](N)C(=O)O` [(S)-5-Acetimidamido-2-aminopentanoic acid (4, L-NIO)] gave an IC50 of 8.1 µM. `CCCC(=N)NCCC[C@H](N)C(=O)O` [(S)-2-Amino-5-butyrimidamidopentanoic acid (9)] registered an IC50 of 19.1 µM and a Ki of 8.61 µM.
